Columns and labels:
Test in all cases: relative viability (nuclei count vs DMSO), 5 days (fraction); higher = more cells survive
RO-3306 + Decitabine = compound: C1=CC2=C(C=CC(=C2)C=C3C(=O)NC(=NCC4=CC=CS4)S3)N=C1 [RO-3306] + Nc1ncn([C@H]2C[C@H](O)[C@@H](CO)O2)c(=O)n1 [Decitabine] (partner 2 µM)
Method in brief: (§1)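 Relative viability divides the nuclei count in treated wells by that in vehicle wells. Lung cancer cell lines were seeded in 1536-well plates, dosed by pin tool the next day, and fixed and stained after 5 days in one step with final 0.05% Triton X-100, 1% formaldehyde and 1 ug/ml Hoechst. Dosing was a single drug or a fixed anchor-drug dose plus five library-drug doses (not always all listed) in √10 steps, and values are medians of duplicate plates imaged at 4×.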

RO-3306 + Foretinib = compound: C1=CC2=C(C=CC(=C2)C=C3C(=O)NC(=NCC4=CC=CS4)S3)N=C1 [RO-3306] + COc1cc2c(Oc3ccc(NC(=O)C4(C(=O)Nc5ccc(F)cc5)CC4)cc3F)ccnc2cc1OCCCN1CCOCC1 [Foretinib] (partner 0.25 µM)
Method in brief: as §1

[1] = compound: O=S(=O)(c1ccccc1)N(CC(F)(F)F)c1ccc(C(O)(C(F)(F)F)C(F)(F)F)cc1 + NC(=O)Nc1cc(-c2cccc(F)c2)sc1C(=O)N[C@H]1CCCNC1 [AZD7762] (partner 0.2 µM)
Method in brief: as §1

[2] = compound: O=S(=O)(c1ccccc1)N(CC(F)(F)F)c1ccc(C(O)(C(F)(F)F)C(F)(F)F)cc1 + C[C@@H](Oc1cc(-c2cnn(C3CCNCC3)c2)cnc1N)c1c(Cl)ccc(F)c1Cl [Crizotinib] (partner 1 µM)
Method in brief: as §1

[3] = compound: O=S(=O)(c1ccccc1)N(CC(F)(F)F)c1ccc(C(O)(C(F)(F)F)C(F)(F)F)cc1 + CCNC(=O)c1noc(-c2cc(C(C)C)c(O)cc2O)c1-c1ccc(CN2CCOCC2)cc1 [Luminespib] (partner 0.01 µM)
Method in brief: as §1

Cell Line | relative viability (RO-3306 + Decitabine; first compound 0.01 µM) | relative viability (RO-3306 + Decitabine; first compound 0.03162 µM) | relative viability (RO-3306 + Decitabine; first compound 0.1 µM) | relative viability (RO-3306 + Decitabine; first compound 0.3162 µM) | relative viability (RO-3306 + Decitabine; first compound 1 µM) | relative viability (RO-3306 + Foretinib; first compound 0.01 µM) | relative viability (RO-3306 + Foretinib; first compound 0.03162 µM) | relative viability (RO-3306 + Foretinib; first compound 0.1 µM) | relative viability (RO-3306 + Foretinib; first compound 0.3162 µM) | relative viability (RO-3306 + Foretinib; first compound 1 µM) | relative viability ([1]; first compound 0.8 µM) | relative viability ([1]; first compound 2.53 µM) | relative viability ([1]; first compound 8 µM) | relative viability ([2]; first compound 0.8 µM) | relative viability ([2]; first compound 2.53 µM) | relative viability ([2]; first compound 8 µM) | relative viability ([3]; first compound 0.8 µM) | relative viability ([3]; first compound 2.53 µM) | relative viability ([3]; first compound 8 µM)
HCC-366 | 0.363 | 0.281 | 0.348 | 0.37 | 0.402 | 0.91 | 0.96 | 0.942 | 0.884 | 0.931 | 0.277 | 0.317 | 0.14 | 0.903 | 0.54 | 0.314 | – | – | –
HCC-827 | 0.339 | 0.316 | 0.345 | 0.379 | 0.289 | 1.07 | 1 | 1.05 | 1.03 | 1.06 | 0.209 | 0.187 | 0.178 | 0.932 | 0.917 | 0.95 | 0.439 | 0.589 | 0.573
IA-LM | – | – | – | – | – | 1.48 | – | 0.956 | 1.12 | 1.3 | – | – | – | 0.863 | 0.652 | 0.906 | – | – | –
NCI-H520 | 0.568 | 0.542 | 0.469 | 0.501 | 0.554 | 0.843 | 0.663 | 0.854 | 0.694 | 0.839 | – | – | – | 0.939 | 0.767 | 0.855 | 0.218 | 0.242 | 0.237
NCI-H522 | 0.736 | 0.544 | 0.712 | 0.775 | 0.638 | – | – | – | – | – | 1.13 | 0.824 | 0.859 | – | – | – | 1.39 | 1.27 | 1.07
NCI-H661 | 0.589 | 0.507 | 0.525 | 0.581 | 0.585 | 1.01 | 1.07 | 0.981 | 0.985 | 0.999 | – | – | – | 0.99 | 0.965 | 0.933 | 0.89 | 0.866 | 0.821
NCI-H1299 | – | – | – | – | – | 1.17 | 1.1 | 1.15 | 1.14 | 1.17 | – | – | – | 0.958 | 0.942 | 0.906 | – | – | –
NCI-H1395 | 0.663 | 0.699 | 0.656 | 0.68 | 0.724 | 0.981 | 0.902 | 0.895 | 0.945 | 0.824 | 0.319 | 0.416 | 0.429 | – | – | – | 0.75 | 0.701 | 0.714
NCI-H1563 | – | – | – | – | – | 0.847 | 1.03 | 0.881 | 0.956 | 0.939 | – | – | – | 0.873 | 0.742 | 0.733 | 0.545 | 0.485 | 0.551
NCI-H1623 | – | – | – | – | – | 0.908 | 0.749 | 0.761 | 0.823 | 0.739 | – | – | – | – | – | – | 0.625 | 0.411 | 0.491
NCI-H1648 | 0.545 | – | 0.357 | 0.47 | 0.472 | – | – | – | – | – | 0.694 | 0.505 | 0.707 | – | – | – | – | – | –
NCI-H1650 | 0.482 | 0.456 | 0.427 | 0.472 | 0.407 | 1.73 | 0.858 | 0.917 | 1.11 | 0.723 | – | – | – | 0.972 | 0.972 | 1.04 | 0.184 | 0.2 | 0.231
NCI-H1703 | – | – | – | – | – | 0.392 | – | 0.325 | 0.389 | 0.345 | 0.132 | 0.119 | 0.132 | 0.676 | 0.701 | 0.588 | – | – | –
NCI-H1792 | 0.702 | – | 0.47 | 0.606 | 0.481 | – | – | – | – | – | 0.841 | 0.616 | 0.441 | 0.843 | 0.75 | 0.818 | 0.419 | 0.359 | 0.269
NCI-H1793 | 0.415 | – | 0.403 | 0.49 | 0.493 | 0.654 | 0.265 | 0.627 | 0.748 | 0.735 | 0.409 | 0.426 | 0.246 | – | – | – | 0.162 | 0.149 | 0.172
NCI-H2009 | 0.385 | 0.373 | 0.351 | 0.382 | 0.371 | 1.32 | 1.24 | 1.2 | 1.19 | 1.2 | – | – | – | 0.981 | 0.888 | 0.824 | 1 | 0.878 | 0.787
NCI-H2023 | 0.25 | 0.285 | 0.208 | 0.218 | 0.213 | 1.17 | 0.71 | 0.818 | 0.702 | 0.943 | – | – | – | 0.754 | 0.524 | 0.61 | 0.921 | 0.638 | 0.535
NCI-H2228 | – | – | – | – | – | 0.759 | 0.808 | 0.954 | 0.641 | 0.635 | – | – | – | 0.389 | 0.354 | 0.462 | 0.154 | 0.165 | 0.122
NCI-H2342 | 0.746 | 0.654 | 0.755 | 0.773 | 0.673 | 1.13 | 0.889 | 1.08 | 1.05 | 0.885 | 0.527 | 0.559 | 0.477 | – | – | – | 0.809 | 0.782 | 0.628
SK-LU-1 | 0.657 | 0.537 | 0.597 | 0.643 | 0.56 | 0.853 | 0.783 | 0.831 | 0.778 | 0.712 | – | – | – | 1.06 | 0.748 | 0.736 | 0.169 | 0.165 | 0.196
SK-MES-1 | 0.341 | 0.406 | 0.327 | 0.352 | 0.371 | 1.06 | 0.425 | 0.996 | 0.782 | 0.976 | – | – | – | 1.02 | 1 | 0.903 | 0.677 | 0.744 | 0.533
SW 900 | 0.45 | 0.425 | 0.42 | 0.404 | 0.549 | 0.965 | 1.12 | 0.68 | 0.806 | 0.644 | 0.609 | 0.53 | 0.709 | – | – | – | 0.181 | 0.192 | 0.172
SW 1573 | 0.537 | 0.461 | 0.401 | 0.507 | 0.45 | 0.89 | 0.879 | 0.934 | 0.993 | 0.887 | – | – | – | 0.709 | 0.75 | 0.636 | 0.266 | 0.218 | 0.207
